Source: patent US11534443B2, “Quinazoline compounds, preparation method, use, and pharmaceutical composition thereof” (INSTITUTE OF MATERIA MEDICA, CHINESE ACADEMY OF MEDICAL …, priority 2016, dated 2022)

Columns and labels:
[1] = biological target: PI3Kα (Homo sapiens (Human), UniProt P42336); experiment: Biochemical evaluation of activity of PI3Kα (Kinase-Glo luminescence kinase assay); conditions: 25 μM ATP, 50 μM PIP2, 1 h at room temperature
Experimental: The potency of compounds in the present intention against PI3Kα was assessed by in vitro kinase assay. The kinase activity of PI3Kα was determined by detecting the level of ADP produced in the kinase reaction with luciferase-based luminescence detection.
The Kinase-Glo™ Kinase Assay Kit was purchased from Promega. All assays were performed at room temperature using white OptiPlate™-384 well plate. The PI3Kα kinase was purchased from Invitrogen. The substrate was PIP2 from Invitrogen. The kinase buffer contained 50 mM Hepes (pH 7.5), 3 mM MgCl2, 100 mM NaCl, 1 mM EGTA, 0.03% CHAPS and 2 mM DTT. […] The substrate solution contained 100 μM PIP2 and 50 μM ATP. The test compound was diluted to 10 mM in 100% DMSO and serially diluted three times into ten different concentrations in 100% DMSO. The compound diluted in 100% DMSO was diluted 25-fold in 1×kinase buffer. 2.5 μL of the diluted compound solution and 2.5 μL PI3Kα kinase solution were added to each well of a 384-well plate. The reaction was initiated by addition of 5 μL substrate solution to each well. […] The plate was then covered and the reaction was allowed to proceed for one hour at room temperature, followed by the addition of 10 μL Kinase-Glo™ reagent to each well to stop the reaction.
The percentage of inhibition was calculated as follows: Inhibition %=100−(max−sample RLU)/(max−min)*100
wherein sample RLU was the luminescence reading for a given compound concentration, min was the reading of DMSO control, and max was the reading of the enzyme-free control. The IC50 value was calculated with the XLfit program in Excel.

[2] = tested on: human lung cancer cell NCI-H460; experiment: Tumor cell viability by MTT assay; format: cell-based; conditions: Homo sapiens, NCI-H460, 96 h
Experimental: After 24 hours, 100 μL of fresh medium containing different concentrations of test compounds and the corresponding solvent control was added into each well to a final concentration of DMSO less than 0.2%. Six to nine concentration groups were set for each test compound, and three parallel wells were set for each group. The plate was incubated at 5% CO2, 37° C. for 96 hours. 20 μL of freshly prepared PBS solution containing 5 mg/mL MTT was added to each well. The supernatant was discarded after incubation for another 4 hours. 150 μL DMSO was added to each well to dissolve the MTT formazan precipitate. After being mixed by a micro-oscillator, the optical density (OD) was measured at the wavelength of 570 nm, and the tumor cells treated with DMSO were used as a control group.

Chain of PI3Kα (P42336 whole entry): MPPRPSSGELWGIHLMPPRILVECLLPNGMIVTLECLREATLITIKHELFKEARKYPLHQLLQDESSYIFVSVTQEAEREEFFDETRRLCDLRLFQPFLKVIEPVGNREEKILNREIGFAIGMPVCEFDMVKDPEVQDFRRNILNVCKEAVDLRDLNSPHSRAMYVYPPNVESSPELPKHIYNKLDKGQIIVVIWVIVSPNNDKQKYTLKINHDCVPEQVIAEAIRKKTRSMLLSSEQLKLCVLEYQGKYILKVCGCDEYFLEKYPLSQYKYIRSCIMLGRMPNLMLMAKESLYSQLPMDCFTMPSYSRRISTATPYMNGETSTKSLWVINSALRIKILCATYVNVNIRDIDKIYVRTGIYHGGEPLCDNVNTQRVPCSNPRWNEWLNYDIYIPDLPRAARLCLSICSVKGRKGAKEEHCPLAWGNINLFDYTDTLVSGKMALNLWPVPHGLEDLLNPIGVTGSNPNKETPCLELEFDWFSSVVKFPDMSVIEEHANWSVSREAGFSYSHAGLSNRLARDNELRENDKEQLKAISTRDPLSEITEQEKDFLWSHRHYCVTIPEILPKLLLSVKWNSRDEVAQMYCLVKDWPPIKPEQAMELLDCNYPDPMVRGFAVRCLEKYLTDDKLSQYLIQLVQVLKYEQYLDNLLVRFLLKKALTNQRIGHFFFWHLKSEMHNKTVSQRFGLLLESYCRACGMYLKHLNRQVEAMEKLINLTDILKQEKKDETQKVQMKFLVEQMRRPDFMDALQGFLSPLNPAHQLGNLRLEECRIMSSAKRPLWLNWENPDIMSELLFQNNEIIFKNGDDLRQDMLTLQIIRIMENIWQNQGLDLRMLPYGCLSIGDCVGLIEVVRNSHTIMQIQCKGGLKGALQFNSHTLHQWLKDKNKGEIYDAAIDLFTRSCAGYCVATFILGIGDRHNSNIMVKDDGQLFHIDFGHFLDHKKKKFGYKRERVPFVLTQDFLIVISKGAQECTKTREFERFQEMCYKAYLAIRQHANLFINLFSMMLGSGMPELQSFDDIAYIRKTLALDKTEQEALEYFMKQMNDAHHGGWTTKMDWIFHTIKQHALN
Chain of PI3Kα (P27986 whole entry partner): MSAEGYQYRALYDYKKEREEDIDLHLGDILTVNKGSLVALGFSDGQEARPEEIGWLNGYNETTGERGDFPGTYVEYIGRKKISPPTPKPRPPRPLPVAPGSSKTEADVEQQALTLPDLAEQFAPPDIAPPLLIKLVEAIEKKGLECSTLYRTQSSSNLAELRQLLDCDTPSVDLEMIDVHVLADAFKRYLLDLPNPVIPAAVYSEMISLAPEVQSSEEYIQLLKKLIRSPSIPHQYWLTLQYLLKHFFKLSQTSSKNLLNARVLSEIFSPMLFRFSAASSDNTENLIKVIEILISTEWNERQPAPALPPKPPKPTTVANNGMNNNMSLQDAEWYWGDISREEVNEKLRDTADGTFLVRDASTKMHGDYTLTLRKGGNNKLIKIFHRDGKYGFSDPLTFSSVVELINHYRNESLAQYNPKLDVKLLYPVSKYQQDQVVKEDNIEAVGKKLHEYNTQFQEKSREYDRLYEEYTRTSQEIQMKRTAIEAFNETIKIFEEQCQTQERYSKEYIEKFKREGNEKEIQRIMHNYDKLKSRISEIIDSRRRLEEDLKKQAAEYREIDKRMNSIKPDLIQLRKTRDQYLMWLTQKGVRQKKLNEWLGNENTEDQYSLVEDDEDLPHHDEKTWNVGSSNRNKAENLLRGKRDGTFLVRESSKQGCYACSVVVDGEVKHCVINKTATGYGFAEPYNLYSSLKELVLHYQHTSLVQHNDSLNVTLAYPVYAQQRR

Structure (SMILES)	IC50 [1] [nM]	IC50 [2] [nM]
COc1ncc(-c2cc(OCCN3CCOCC3)c3nc(N)nc(C)c3c2)cc1NS(=O)(=O)c1ccc(F)cc1F [Example 16, N-(5-(2-amino-4-methyl-8-(2-morpholinoethoxy)quinazolin-6-yl)-2-methoxypyridin-3-yl)-2,4-difluorobenzenesulfonamide]	4.1	1100
COCCOc1cc(-c2cnc(OC)c(NS(=O)(=O)c3ccc(F)cc3F)c2)cc2c(C)nc(N)nc12 [Example 25, N-(5-(2-amino-8-(2-methoxyethoxy)-4-methylquinazolin-6-yl)-2-methoxypyridin-3-yl)-2,4-difluorobenzenesulfonamide]	1.6	200
COc1ncc(-c2cc(OC(C)C)c3nc(N)nc(C)c3c2)cc1NS(=O)(=O)c1ccc(F)cc1F [Example 26, N-(5-(2-amino-8-isopropoxy-4-methylquinazolin-6-yl)-2-methoxypyridin-3-yl)-2,4-difluorobenzenesulfonamide]	0.79	140
COc1ncc(-c2cc(OCC3CC3)c3nc(N)nc(C)c3c2)cc1NS(=O)(=O)c1ccc(F)cc1F [Example 27, N-(5-(2-amino-8-(cyclopropylmethoxy)-4-methylquinazolin-6-yl)-2-methoxypyridin-3-yl)-2,4-difluorobenzenesulfonamide]	1.7	200
COc1ncc(-c2cc(OC)c3nc(N)nc(C)c3c2)cc1NS(=O)(=O)c1ccc(F)cc1F [Example 28, N-(5-(2-amino-8-methoxy-4-methylquinazolin-6-yl)-2-methoxypyridin-3-yl)-2,4-difluorobenzenesulfonamide]	1.2	280

Results, then the compound that gave them:

IC50 [1] [nM]	IC50 [2] [nM]	Structure (SMILES)
2.3	83	COc1ncc(-c2cc(OC3CCC(F)(F)CC3)c3nc(N)nc(C)c3c2)cc1NS(=O)(=O)c1ccc(F)cc1F [Example 17, N-(5-(2-amino-8-((4,4-difluorocyclohexyl)oxy)-4-methylquinazolin-6-yl)-2-methoxypyridin-3-yl)-2,4-difluorobenzenesulfonamide]
0.6	96	COc1ncc(-c2cc(OC3CCCCC3)c3nc(N)nc(C)c3c2)cc1NS(=O)(=O)c1ccc(F)cc1F [Example 22, N-(5-(2-amino-8-(cyclohexyloxy)-4-methylquinazolin-6-yl)-2-methoxypyridin-3-yl)-2,4-difluorobenzenesulfonamide]
1.1	59	CNc1nc(C)c2cc(-c3cnc(OC)c(NS(=O)(=O)c4ccc(F)cc4F)c3)cc(OC3CCOCC3)c2n1 [Example 29, N-(2-methoxy-5-(4-methyl-2-(methylamino)-8-((tetrahydro-2H-pyran-4-yl)oxy)quinazolin-6-yl)pyridin-3-yl)-2,4-difluorobenzenesulfonamide]
1.3	240	CCNc1nc(C)c2cc(-c3cnc(OC)c(NS(=O)(=O)c4ccc(F)cc4F)c3)cc(OC3CCOCC3)c2n1 [Example 30, N-(5-(2-(ethylamino)-4-methyl-8-((tetrahydro-2H-pyran-4-yl)oxy)quinazolin-6-yl)-2-methoxypyridin-3-yl)-2,4-difluorobenzenesulfonamide]
3.8	410	COc1ncc(-c2cc(OC3CCOCC3)c3nc(NCC4CC4)nc(C)c3c2)cc1NS(=O)(=O)c1ccc(F)cc1F [Example 31, N-(5-(2-((cyclopropylmethyl)amino)-4-methyl-8-((tetrahydro-2H-pyran-4-yl)oxy)quinazolin-6-yl)-2-methoxypyridin-3-yl)-2,4-difluorobenzenesulfonamide]
1.7	100	CNc1nc(C)c2cc(-c3cnc(OC)c(NS(=O)(=O)c4ccc(F)cc4Cl)c3)cc(O[C@@H]3CCOC3)c2n1 [Example 33, (R)—N-(2-methoxy-5-(4-methyl-2-(methylamino)-8-((tetrahydrofuran-3-yl)oxy)quinazolin-6-yl)pyridin-3-yl)-2-chloro-4-fluorobenzenesulfonamide]
